Tested on: yeast genes (expressed mRNA)
Assay: DNA chip measurement of expressed mRNA of yeast genes after culture with a toxic chemical substance
Format: cell-based, Saccharomyces cerevisiae S288C
In short: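 Fluorescence ratio, treated over untreated, read by chip scanner; ratio of two or more counted significant. Cells: S288C yeast, YPD, 25° C, chemical added at log phase for 2 h at growth-inhibiting, sublethal level. Cy3/Cy5-labeled cDNA from oligo-dT-purified mRNA.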

S=C([S-])NCCNC(=S)[S-].[Zn+2] [(11), Zinc N,N′-ethylenebis(dithiocarbamate)]
The level of expressed mRNA in the presence of chemical substance/The level of expressed mRNA in the absence of chemical substance (yeast gene YKL086W, cultured two hours with substance): 0.7 | The level of expressed mRNA in the presence of chemical substance/The level of expressed mRNA in the absence of chemical substance (yeast gene YKL151C, cultured two hours with substance): 2.3 | The level of expressed mRNA in the presence of chemical substance/The level of expressed mRNA in the absence of chemical substance (yeast gene YKL153W, cultured two hours with substance): 2.1 | The level of expressed mRNA in the presence of chemical substance/The level of expressed mRNA in the absence of chemical substance (yeast gene YKL195W, cultured two hours with substance): 1.0 | The level of expressed mRNA in the presence of chemical substance/The level of expressed mRNA in the absence of chemical substance (yeast gene YKR076W): 18.6 | The level of expressed mRNA in the presence of chemical substance/The level of expressed mRNA in the absence of chemical substance (yeast gene YKR091W, cultured two hours with substance): 1.1 | The level of expressed mRNA in the presence of chemical substance/The level of expressed mRNA in the absence of chemical substance (yeast gene YLL060C (detoxification protein gene)): 14.1 | The level of expressed mRNA in the presence of chemical substance/The level of expressed mRNA in the absence of chemical substance (yeast gene YLL060C (stress protein genes)): 14.1 | The level of expressed mRNA in the presence of chemical substance/The level of expressed mRNA in the absence of chemical substance (yeast gene YLR031W, cultured two hours with substance): 0.7 | The level of expressed mRNA in the presence of chemical substance/The level of expressed mRNA in the absence of chemical substance (yeast gene YLR054C, cultured two hours with substance): 0.7 | The level of expressed mRNA in the presence of chemical substance/The level of expressed mRNA in the absence of chemical substance (yeast gene YLR142W): 3.8 | The level of expressed mRNA in the presence of chemical substance/The level of expressed mRNA in the absence of chemical substance (yeast gene YLR149C, cultured two hours with substance): 2.8 | The level of expressed mRNA in the presence of chemical substance/The level of expressed mRNA in the absence of chemical substance (yeast gene YLR152C, cultured two hours with substance): 3.6 | The level of expressed mRNA in the presence of chemical substance/The level of expressed mRNA in the absence of chemical substance (yeast gene YLR194C, cultured two hours with substance): 1.4 | The level of expressed mRNA in the presence of chemical substance/The level of expressed mRNA in the absence of chemical substance (yeast gene YLR205C, cultured two hours with substance): 0.4 | The level of expressed mRNA in the presence of chemical substance/The level of expressed mRNA in the absence of chemical substance (yeast gene YLR297W, cultured two hours with substance): 3.5 | The level of expressed mRNA in the presence of chemical substance/The level of expressed mRNA in the absence of chemical substance (yeast gene YLR324W, cultured two hours with substance): 0.9 | The level of expressed mRNA in the presence of chemical substance/The level of expressed mRNA in the absence of chemical substance (yeast gene YLR346C, cultured two hours with substance): 0.5 | The level of expressed mRNA in the presence of chemical substance/The level of expressed mRNA in the absence of chemical substance (yeast gene YLR350W, cultured two hours with substance): 0.9 | The level of expressed mRNA in the presence of chemical substance/The level of expressed mRNA in the absence of chemical substance (yeast gene YLR387C, cultured two hours with substance): 0.9 | The level of expressed mRNA in the presence of chemical substance/The level of expressed mRNA in the absence of chemical substance (yeast gene YLR460C, cultured two hours with substance): 14.3 | The level of expressed mRNA in the presence of chemical substance/The level of expressed mRNA in the absence of chemical substance (yeast gene YML117W, cultured two hours with substance): 0.8 | The level of expressed mRNA in the presence of chemical substance/The level of expressed mRNA in the absence of chemical substance (yeast gene YML131W): 14.4 | The level of expressed mRNA in the presence of chemical substance/The level of expressed mRNA in the absence of chemical substance (yeast gene YMR009W, cultured two hours with substance): 2.1 | The level of expressed mRNA in the presence of chemical substance/The level of expressed mRNA in the absence of chemical substance (yeast gene YMR067C, cultured two hours with substance): 1.1 | The level of expressed mRNA in the presence of chemical substance/The level of expressed mRNA in the absence of chemical substance (yeast gene YMR090W, cultured two hours with substance): 8.8 | The level of expressed mRNA in the presence of chemical substance/The level of expressed mRNA in the absence of chemical substance (yeast gene YMR095C, cultured two hours with substance): 2.1 | The level of expressed mRNA in the presence of chemical substance/The level of expressed mRNA in the absence of chemical substance (yeast gene YMR097C, cultured two hours with substance): 1.5 | The level of expressed mRNA in the presence of chemical substance/The level of expressed mRNA in the absence of chemical substance (yeast gene YMR102C, cultured two hours with substance): 1.5 | The level of expressed mRNA in the presence of chemical substance/The level of expressed mRNA in the absence of chemical substance (yeast gene YMR107W, cultured two hours with substance): 3.0 | The level of expressed mRNA in the presence of chemical substance/The level of expressed mRNA in the absence of chemical substance (yeast gene YMR140W, cultured two hours with substance): 0.7 | The level of expressed mRNA in the presence of chemical substance/The level of expressed mRNA in the absence of chemical substance (yeast gene YMR180C, cultured two hours with substance): 0.7 | The level of expressed mRNA in the presence of chemical substance/The level of expressed mRNA in the absence of chemical substance (yeast gene YMR184W, cultured two hours with substance): 1.5 | The level of expressed mRNA in the presence of chemical substance/The level of expressed mRNA in the absence of chemical substance (yeast gene YMR191W, cultured two hours with substance): 2.3 | The level of expressed mRNA in the presence of chemical substance/The level of expressed mRNA in the absence of chemical substance (yeast gene YMR195W, cultured two hours with substance): 1.1 | The level of expressed mRNA in the presence of chemical substance/The level of expressed mRNA in the absence of chemical substance (yeast gene YMR295C, cultured two hours with substance): 1.2 | The level of expressed mRNA in the presence of chemical substance/The level of expressed mRNA in the absence of chemical substance (yeast gene YMR316W, cultured two hours with substance): 1.5 | The level of expressed mRNA in the presence of chemical substance/The level of expressed mRNA in the absence of chemical substance (yeast gene YNL044W, cultured two hours with substance): 1.1 | The level of expressed mRNA in the presence of chemical substance/The level of expressed mRNA in the absence of chemical substance (yeast gene YNL074C, cultured two hours with substance): 1.3 | The level of expressed mRNA in the presence of chemical substance/The level of expressed mRNA in the absence of chemical substance (yeast gene YNL092W, cultured two hours with substance): 0.7

Reference: US20100041089A1, “IMPROVED METHOD FOR DETECTING CHEMICAL […]” (priority 2006, published 2010)
